Assay results taken from patent US20210179600A1, “OXAZOLE AND THIAZOLE DERIVATIVES AS INHIBITORS OF ASK1” (Hepagene Therapeutics (HK) Limited, priority 2017, published 2021).

Biological target: T1, Recombinant human ASK1 kinase (Homo sapiens, UniProt Q99683)
T1 construct: purchased Invitrogen Inc
T1 sequence (Q99683 1-1374): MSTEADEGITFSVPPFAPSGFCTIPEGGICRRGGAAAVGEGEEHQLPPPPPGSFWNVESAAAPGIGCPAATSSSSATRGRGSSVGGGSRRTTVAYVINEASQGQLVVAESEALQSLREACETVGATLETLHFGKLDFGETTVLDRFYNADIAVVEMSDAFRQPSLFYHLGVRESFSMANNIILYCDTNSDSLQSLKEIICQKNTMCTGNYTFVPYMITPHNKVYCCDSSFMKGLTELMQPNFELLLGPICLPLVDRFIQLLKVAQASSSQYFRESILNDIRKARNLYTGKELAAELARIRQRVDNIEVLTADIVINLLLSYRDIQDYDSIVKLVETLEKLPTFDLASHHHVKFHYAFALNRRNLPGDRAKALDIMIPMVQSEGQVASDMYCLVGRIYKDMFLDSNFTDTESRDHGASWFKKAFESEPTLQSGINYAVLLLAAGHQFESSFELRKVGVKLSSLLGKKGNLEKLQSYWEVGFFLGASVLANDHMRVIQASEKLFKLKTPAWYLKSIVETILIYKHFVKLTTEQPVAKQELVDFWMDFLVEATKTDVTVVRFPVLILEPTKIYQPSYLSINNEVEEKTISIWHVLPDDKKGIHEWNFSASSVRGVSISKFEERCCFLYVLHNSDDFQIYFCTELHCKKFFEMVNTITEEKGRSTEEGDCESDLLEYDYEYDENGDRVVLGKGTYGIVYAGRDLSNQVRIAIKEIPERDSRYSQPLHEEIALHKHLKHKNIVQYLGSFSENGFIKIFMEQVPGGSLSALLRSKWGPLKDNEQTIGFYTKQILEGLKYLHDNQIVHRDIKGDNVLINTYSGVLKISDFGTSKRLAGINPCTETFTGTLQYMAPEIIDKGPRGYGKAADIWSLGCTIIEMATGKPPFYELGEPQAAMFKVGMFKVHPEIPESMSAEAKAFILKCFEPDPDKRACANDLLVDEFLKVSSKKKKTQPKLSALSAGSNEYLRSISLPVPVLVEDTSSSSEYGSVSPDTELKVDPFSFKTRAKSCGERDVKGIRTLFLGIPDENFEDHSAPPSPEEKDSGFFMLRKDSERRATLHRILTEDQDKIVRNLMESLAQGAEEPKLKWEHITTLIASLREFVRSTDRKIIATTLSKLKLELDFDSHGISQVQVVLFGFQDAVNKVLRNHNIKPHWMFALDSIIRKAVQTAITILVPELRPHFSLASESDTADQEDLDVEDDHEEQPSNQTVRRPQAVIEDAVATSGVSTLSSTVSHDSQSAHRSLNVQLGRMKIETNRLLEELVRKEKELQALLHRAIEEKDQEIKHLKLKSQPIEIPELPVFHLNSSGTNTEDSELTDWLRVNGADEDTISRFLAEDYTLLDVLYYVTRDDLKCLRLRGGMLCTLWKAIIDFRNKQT
Assay: ASK1 kinase HTRF assay (KinEASE-STK)
Type: biochemical
Details: HTRF detection; 3 nM ASK1 kinase, 1 uM STK-substrate-biotin
Protocol: Reagents: Recombinant human ASK1 kinase was from Invitrogen Inc. HTRF KinEASE™-STK S3 kit was obtained from Cisbio (Bedford, Mass.). All other reagents were of the highest grade commercially available.
Assay: The assay measures the phosphorylation level of a biotinylatd peptide substrate by the ASK1 kinase using HTRF detection. ASK1 kinase assay is based on HTRF KinEASE™-STK manual from Cisbio. Test compound, 1 uM STK-substrate-biotin, 3 nM of ASK1 kinase are incubated with 1*Kinase buffer with 5 mM MgCl2 and 1 mM DTT. 250 nM Sa-XL 665(4*) and STK-antibody-Cryptate work solution are added to stop the reaction and phosphorylated peptide substrate is detected using Envision 2104 Multilabeled reader from PerkinElmer. The fluorescence is measured at 615 nm (Cryptate) and 665 nm (XL665) and a ratio of 665 nm/615 nm is calculated for each well. The resulting TR-FRET level (a ratio of 665 nm/615 nm) is proportional to the phosphorylation level of substrate.

EC50 [µM]	Structure (SMILES)
0.05 to 0.5	C[C@@H](CO)n1cnnc1-c1cccc(-c2ncc(-c3ccccc3)o2)n1 [Compound I-019]
0.05 to 0.5	CC(C)n1cnnc1-c1cccc(-c2ncc(-c3cccc(C(F)F)c3)o2)n1 [Compound I-087]
≤ 0.05	CC(C)n1cnnc1-c1cccc(-c2ncc(-c3cccc(C4CCNCC4)c3)o2)n1 [Compound I-123]
≤ 0.05	CC(C)n1cnnc1-c1cccc(-c2ncc(-c3cccc(N4CCC(O)C4)c3)o2)n1 (stereo not drawn) [Compound I-005, 1-[3-(2-[6-[4-(Propan-2-yl)-4H-1,2,4-triazol-3-yl]pyridin-2-yl]-1,3-oxazol-5-yl)phenyl]pyrrolidin-3-ol]
0.05 to 0.5	Cc1cc(C)c(-c2cnc(-c3cccc(-c4nncn4[C@H](C)CO)n3)o2)c(C)c1 [Compound I-033]
0.05 to 0.5	CC(C)n1cnnc1-c1cccc(-c2ncc(-c3cccc(C4=CCCCCC4)c3)o2)n1 [Compound I-138]
0.05 to 0.5	CC(C)n1cnnc1-c1cccc(-c2ncc(-c3cccc(N4CCC(N5CCOCC5)CC4)c3)o2)n1 [Compound I-122]
≤ 0.05	CSc1ccccc1-c1cnc(-c2cccc(-c3nncn3[C@H](C)CO)n2)o1 [Compound I-096]
0.05 to 0.5	CC(C)n1cnnc1-c1cccc(-c2ncc(-c3nccs3)o2)n1 [Compound I-141]
0.05 to 0.5	CC(C)n1cnnc1-c1cccc(-c2ncc(-c3cccc(C4CCCC4)c3)o2)n1 [Compound I-133]
≤ 0.05	C[C@H](CO)n1cnnc1-c1cccc(-c2ncc(-c3cccc(N4CCNCC4)c3)o2)n1 [Compound I-114]
≤ 0.05	C[C@H](CO)n1cnnc1-c1cccc(-c2ncc(-c3cccc(N(C)C)c3)o2)n1 [Compound I-059]
≤ 0.05	CC(C)n1cnnc1-c1cccc(-c2ncc(-c3c(F)cccc3F)o2)n1 [Compound I-050]
≤ 0.05	CC(C)n1cnnc1-c1cccc(-c2ncc(-c3cccc(OC[C@@H]4CN(C)CCO4)c3)o2)n1 [Compound I-080]
≤ 0.05	C[C@H](CO)n1cnnc1-c1cccc(-c2ncc(-c3ccc(N)cc3)o2)n1 [Compound I-066]
≤ 0.05	C[C@H](CO)n1cnnc1-c1cccc(-c2ncc(-c3cccc(C4CCCCC4)c3)o2)n1 [Compound I-129]
0.05 to 0.5	COc1cccc(-c2cnc(-c3cccc(-c4nncn4C(C)C)n3)o2)c1 [Compound I-070]
≤ 0.05	CC(CO)n1cnnc1-c1cccc(-c2ncc(-c3ccccc3)o2)n1 (stereo not drawn) [Compound I-004, 2-(3-(6-(5-Phenyloxazol-2-yl)pyridin-2-yl)-4H-1,2,4-triazol-4-yl) propan-1-ol]
≤ 0.05	CC(C)n1cnnc1-c1cccc(-c2ncc(-c3cccc(N)c3)o2)n1 [Compound I-063]
0.05 to 0.5	CC(C)n1cnnc1-c1cccc(-c2ncc(-c3ccc(-c4ccccc4)cc3)o2)n1 [Compound I-105]
≤ 0.05	Cc1ccc(-c2cnc(-c3cccc(-c4nncn4C(C)C)n3)o2)c(F)c1 [Compound I-041]
0.05 to 0.5	Cc1cccc(-c2cnc(-c3cccc(-c4nncn4C(C)C)n3)o2)c1 [Compound I-028]
0.05 to 0.5	C[C@H](CO)n1cnnc1-c1cccc(-c2ncc(-c3cccc(C4=CCCCC4)c3)o2)n1 [Compound I-130]
≤ 0.05	Cc1cc(F)c(-c2cnc(-c3cccc(-c4nncn4[C@H](C)CO)n3)o2)c(F)c1 [Compound I-052]
